The values that follow come from US20220257621A1, “CANCER CELL PROLIFERATION SUPPRESSION AGENT AND COMPOSITION FOR SUPPRESSING PROLIFERATION OF CANCER CELLS” (SHOWA DENKO K.K., priority 2019, published 2022).

The test system of data set [1] is normal human epidermal keratinocytes (NHEK). The experiment in a line: Effect (1) of suppressing ROS production induced by atmospheric dust (ROS assay kit, fluorescence). The class given is cell-based. Here is the method: The effect of the inositol derivative on suppressing ROS production in normal human epidermal keratinocytes (NHEK, manufactured by KURABO INDUSTRIES LTD.) was measured under the following conditions. The NHEK cells were seeded in a HuMedia KG2 medium manufactured by KURABO INDUSTRIES LTD. at the seeding density of 10000 cells/cm^2, and cultured for 24 hours under the conditions of 37° C. and 5% CO2. Next, an aqueous solution of the inositol derivative or an aqueous solution of myo-inositol was added to the culture medium so that the final concentration of the inositol derivative or myo-inositol was 0.001% by mass, or water (pure water) was added to the culture medium, and culturing was further performed for 24 hours. Thereafter, 0.1 mL of a DMSO solution of atmospheric dust (NIST 1648a) was added per 100 mL of the culture medium so that the final concentration of the atmospheric dust in the culture medium was 500 μg/mL, and culturing was further performed for 48 hours in the same conditions as above. Thereafter, the ROS production amount was measured using a ROS assay kit (manufactured by OZ BIOSCIENCES). […] After washing the cells with PBS again, 100 μL of PBS was added, and the fluorescence intensity at an excitation wavelength of 485 nm/an absorption wavelength of 535 nm was measured with a microplate reader i-Control (manufactured by Tecan Group Ltd.). […]

In a further data set the test system is ARNT gene. In words: Suppression of ARNT gene expression induced by atmospheric dust (quantitative real-time PCR). In kind it is cell-based, human. As to conditions: NHEK; sample 0.001% by mass 24 h, then atmospheric dust (NIST 1648a) 500 μg/mL 48 h; standardized to GAPDH; control without dust = 1; dust + water = 1.74. How it is done: The effect of the inositol derivative on suppressing the expression of an ARNT gene in normal human epidermal keratinocytes (NHEK, manufactured by KURABO INDUSTRIES LTD.) was measured under the following conditions. The NHEK cells were seeded in a HuMedia KG2 medium manufactured by KURABO INDUSTRIES LTD. at the seeding density of 10000 cells/cm^2, and cultured for 24 hours under the conditions of 37° C. and 5% CO2. Next, an aqueous solution of the inositol derivative or an aqueous solution of myo-inositol was added to the culture medium so that the final concentration of the inositol derivative or myo-inositol was 0.001% by mass, or water (pure water) was added to the culture medium, and culturing was further performed for 24 hours. […] Using this cDNA as a template, the expression level of the ARNT gene was quantitatively determined by quantitative real-time PCR using a primer specific to the ARNT gene (Perfect Real Time Primer, manufactured by Takara Bio Inc.). As an internal standard gene, the expression level of GAPDH was quantitatively determined (primer used: Perfect Real Time Primer, manufactured by Takara Bio Inc.), and the expression level of the ARNT gene was standardized based on the expression level of GAPDH. […]
A general note: Quantitative PCR measures a nucleic acid by following its amplification.

A further data set has as its system CYP1A1 gene. The experiment in a line: Suppression of CYP1A1 gene expression induced by atmospheric dust (quantitative real-time PCR). As to conditions: NHEK; sample 0.001% by mass 24 h, then atmospheric dust (NIST 1648a) 500 μg/mL 48 h; standardized to GAPDH; control without dust = 1; dust + water = 4.11. The class given is cell-based, human. How it is done: The effect of the inositol derivative on suppressing the expression of a CYP1A1 gene and a CYP1B1 gene in normal human epidermal keratinocytes (NHEK, manufactured by KURABO INDUSTRIES LTD.) was measured under the following conditions.
The NHEK cells were seeded in a HuMedia KG2 medium manufactured by KURABO INDUSTRIES LTD. at the seeding density of 10000 cells/cm^2, and cultured for 24 hours under the conditions of 37° C. and 5% CO2. […] Using this cDNA as a template, the expression levels of the CYP1A1 gene and the CYP1B1 gene were quantitatively determined by quantitative real-time PCR using primers (QuantiTect Primer Assays, manufactured by QIAGEN) specific to the CYP1A1 gene and the CYP1B1 gene. As an internal standard gene, the expression level of a GAPDH gene, which is a housekeeping gene in which expression fluctuation due to the addition of atmospheric dust is not shown, was quantitatively determined (primer used: Perfect Real Time Primer, manufactured by Takara Bio Inc.), and the expression levels of the CYP1A1 gene and the CYP1B1 gene were standardized based on the expression level of GAPDH. […]

In the case of `O[C@H]1[C@H](O)[C@@H](O)[C@H](O)[C@@H](O)[C@H]1O` [myo-Inositol, myo-inositol], in data set [1] (0.001% by mass, atmospheric dust 500 μg/mL), the “Effect of suppressing ROS production as compared to the water-added group” value is “not recognized”. The “Relative ROS production amount” value in data set [1] (sample 0.001% by mass 24 h, then atmospheric dust 500 μg/mL 48 h, fluorescence relative to control without dust = 1, dust + water = 1.46) came out at 1.83. Also, the “Relative gene expression level ARNT” value in the data set with ARNT gene is 1.85. For the same compound, the “Relative gene expression level CYP1A1” value in the data set with CYP1A1 gene is 3.10.
